Where a name gives a salt, the structure may show the parent alone.

Consider 29 compounds from patent US12084472B2 (Ardelyx, Inc., priority 2015, dated 2024).

The assay deals with T1, human TGR5 (Homo sapiens, UniProt Q8TDU6).
T1 construct: expressed in transfected cells; host or cells: HEK293
T1 sequence (Q8TDU6 1-330): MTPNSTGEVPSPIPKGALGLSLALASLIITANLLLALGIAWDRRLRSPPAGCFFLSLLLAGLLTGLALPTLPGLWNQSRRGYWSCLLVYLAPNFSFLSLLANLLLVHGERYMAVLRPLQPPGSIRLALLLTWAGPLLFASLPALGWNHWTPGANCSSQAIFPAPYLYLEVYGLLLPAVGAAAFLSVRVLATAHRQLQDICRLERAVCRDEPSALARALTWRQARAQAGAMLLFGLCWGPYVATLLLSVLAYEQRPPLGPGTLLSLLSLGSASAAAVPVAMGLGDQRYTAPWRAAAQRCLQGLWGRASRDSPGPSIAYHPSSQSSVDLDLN
The assay can be described thus: Cell-based TGR5 assay (cAMP generation, HTRF). The note with it: HEK293 cells stably transfected with human TGR5; cAMP by HTRF; 30 minutes at 37° C.; read-out: pEC50 Human TGR5 (converted). In outline: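 First, compounds in 3-fold serial dilution were placed in HBSS with 10 mM HEPES pH 7.4 and 0.5 mM IBMX. Next, human TGR5-expressing HEK293 cells were added and incubated 30 min at 37° C. Finally, cAMP was detected by HTRF and pEC50 derived by logistic fitting.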
In the case of `CSc1cnc(CNC2(c3cnccc3-c3ccccc3OC3CC3)CC2)c(C)c1` [Compound I-39, 1-[4-(2-cyclopropoxyphenyl)pyridin-3-yl]-N-{[3-methyl-5-(methylsulfanyl)pyridin-2-yl]methyl}cyclopropan-1-amine], the EC50 is 126 to 1000 nM.

Regarding `Cc1ccc(Cl)cc1CNC1(c2cnccc2-c2ccccc2OC2CC2)CC1` [Compound I-40, N-[(5-chloro-2-methylphenyl)methyl]-1-[4-(2-cyclopropoxyphenyl)pyridin-3-yl]cyclopropan-1-amine], the EC50 was below 100 nM.

For `CSc1cnc(C)cc1CNC1(c2cnccc2-c2ccccc2OC2CC2)CC1` [Compound I-42, 1-[4-(2-cyclopropoxyphenyl)pyridin-3-yl]-N-{[2-methyl-5-(methylsulfanyl)pyridin-4-yl]methyl}cyclopropan-1-amine], the EC50 is below 100 nM.

For `CS(=O)(=O)c1ccc(Cl)cc1CNC1(c2cnccc2-c2ccccc2OC2CC2)CC1` [Compound I-43, N-[(5-chloro-2-methanesulfonylphenyl)methyl]-1-[4-(2-cyclopropoxyphenyl)pyridin-3-yl]cyclopropan-1-amine], the EC50 is 126 to 1000 nM.

Consider `Clc1cc(Cl)cc(CNC2(c3cnccc3-c3ccccc3OC3CC3)CC2)c1` [Compound I-44, 1-[4-(2-cyclopropoxyphenyl)pyridin-3-yl]-N-[(3,5-dichlorophenyl)methyl]cyclopropan-1-amine], for which the EC50 was 1260 to 10000 nM.

As to `COc1ccccc1-c1ccncc1C1(OCc2cc(Cl)ccc2Cl)CC1` [Compound I-45, 3-[1-[(2,5-dichlorophenyl)methoxy]cyclopropyl]-4-(2-methoxyphenyl)pyridine], the EC50 is below 100 nM.

With `Clc1ccc(Cl)c(COC2(c3cnccc3-c3ccccc3OC3CC3)CC2)c1` [Compound I-46, 4-(2-cyclopropoxyphenyl)-3-{1-[(2,5-dichlorophenyl)methoxy]cyclopropyl}pyridine], the EC50 was below 100 nM.

For `Clc1cccc(COC2(c3cnccc3-c3ccccc3OC3CC3)CC2)c1Cl` [Compound I-47, 4-(2-cyclopropoxyphenyl)-3-{1-[(2,3-dichlorophenyl)methoxy]cyclopropyl}pyridine], the EC50 is 126 to 1000 nM.

As for `Clc1ccc(COC2(c3cnccc3-c3ccccc3OC3CC3)CC2)c(Cl)c1` [Compound I-48, 4-(2-cyclopropoxyphenyl)-3-{1-[(2,4-dichlorophenyl)methoxy]cyclopropyl}pyridine], the EC50 is 126 to 1000 nM.

On to `Clc1ccc(Cl)c(COC2(c3cnccc3-c3ccccc3OC3CCC3)CC2)c1` [Compound I-49, 4-(2-cyclobutoxyphenyl)-3-{1-[(2,5-dichlorophenyl)methoxy]cyclopropyl}pyridine], for which the EC50 was below 100 nM.

As for `Fc1ccccc1-c1ccncc1C1(OCc2cc(Cl)ccc2Cl)CC1` [Compound I-50, 3-{1-[(2,5-dichlorophenyl)methoxy]cyclopropyl}-4-(2-fluorophenyl)pyridine], the EC50 was 1260 to 10000 nM.

`FC(F)(F)c1ccc(Cl)cc1COC1(c2cnccc2-c2ccccc2OC2CC2)CC1` [Compound I-51, 3-(1-{[5-chloro-2-(trifluoromethyl)phenyl]methoxy}cyclopropyl)-4-(2-cyclopropoxyphenyl) pyridine]: the EC50 is 126 to 1000 nM.

As for `FC(F)(F)c1ccc(Cl)c(COC2(c3cnccc3-c3ccccc3OC3CC3)CC2)c1` [Compound I-52, 3-(1-{[2-chloro-5-(trifluoromethyl)phenyl]methoxy}cyclopropyl)-4-(2-cyclopropoxyphenyl)pyridine], the EC50 is below 100 nM.

Take `Clc1ccc(C2CC2)cc1COC1(c2cnccc2-c2ccccc2OC2CC2)CC1` [Compound I-53, 3-{1-[(2-chloro-5-cyclopropylphenyl)methoxy]cyclopropyl}-4-(2-cyclopropoxyphenyl)pyridine]: the EC50 is below 100 nM.

As to `Cc1ccc(Cl)c(COC2(c3cnccc3-c3ccccc3OC3CC3)CC2)c1` [Compound I-54, 3-{1-[(2-chloro-5-methylphenyl)methoxy]cyclopropyl}-4-(2-cyclopropoxyphenyl)pyridine], the EC50 was below 100 nM.

On to `Cc1ccc(Cl)cc1COC1(c2cnccc2-c2ccccc2OC2CC2)CC1` [Compound I-55, 3-{1-[(5-chloro-2-methylphenyl)methoxy]cyclopropyl}-4-(2-cyclopropoxyphenyl)pyridine], for which the EC50 is below 100 nM.

As for `Clc1cc(Cl)cc(COC2(c3cnccc3-c3ccccc3OC3CC3)CC2)c1` [Compound I-56, 4-(2-cyclopropoxyphenyl)-3-{1-[(3,5-dichlorophenyl)methoxy]cyclopropyl}pyridine], the EC50 was 1260 to 10000 nM.

With `NC(=O)N(Cc1cc(Cl)ccc1Cl)C1(c2cnccc2-c2ccccc2OC2CC2)CC1` [Compound I-57, 1-[1-[4-(2-cyclopropoxyphenyl)pyridin-3-yl]cyclopropyl]-1-[(2,5-dichloro-phenyl)methyl]urea], the EC50 is 1260 to 10000 nM.

For the compound `CN(Cc1cc(Cl)ccc1Cl)C1(c2cnccc2-c2ccccc2OC2CC2)CC1` [Compound I-58, 1-[4-(2-cyclopropoxyphenyl)pyridin-3-yl]-N-[(2,5-dichlorophenyl)methyl]-N-1-amine], the EC50 was 1260 to 10000 nM.

On to `Clc1ccc(Cl)c(COC2(c3cnccc3-c3ccccc3OC3CC3)COC2)c1` [Compound I-59, 4-(2-cyclopropoxyphenyl)-3-[3-[(2,5-dichlorophenyl)methoxy]oxetan-3-yl]pyridine], for which the EC50 was below 100 nM.

For the compound `O=C(NCCCCCc1cc(Cl)c(CNC2(c3cnccc3-c3ccccc3OC3CC3)CC2)cc1Cl)NC[C@H](O)[C@@H](O)[C@H](O)[C@H](O)CO` [Compound I-60, 1-(5-[2,5-dichloro-4-[([1-[4-(2-cyclopropoxyphenyl)pyridin-3-yl]cyclopropyl]amino)methyl]phenyl]pentyl)-3-[(2S,3R,4R,5R)-2,3,4,5,6-pentahydroxyhexyl]urea hydrochloride], the EC50 was below 100 nM.

With `O=C(O)CCCCc1cc(Cl)c(CNC2(c3cnccc3-c3ccccc3OC3CC3)CC2)cc1Cl` [Compound I-61, 5-[2,5-dichloro-4-[([1-[4-(2-cyclopropoxyphenyl)pyridin-3-yl]cyclopropyl]amino)methyl]phenyl]pentanoic acid], the EC50 is 126 to 1000 nM.

For `O=C(CCCCc1cc(Cl)c(CNC2(c3cnccc3-c3ccccc3OC3CC3)CC2)cc1Cl)NC[C@H](O)[C@@H](O)[C@H](O)[C@H](O)CO` [Compound I-62, 5-[2,5-dichloro-4-[([1-[4-(2-cyclopropoxyphenyl)pyridin-3-yl]cyclopropyl]amino)methyl]phenyl]-N-[(2S,3R,4R,5R)-2,3,4,5,6-pentahydroxyhexyl]pentanamide], the EC50 was 126 to 1000 nM.

On to `O=C(O)CCCC(=O)N(CCCCc1cc(Cl)c(CNC2(c3cnccc3-c3ccccc3OC3CC3)CC2)cc1Cl)C[C@H](O)[C@@H](O)[C@H](O)[C@H](O)CO` [Compound I-63, 4-[(4-[2,5-dichloro-4-[([1-[4-(2-cyclopropoxyphenyl)pyridin-3-yl]cyclopropyl]amino)methyl]phenyl]butyl) [(2S,3R,4R,5R)-2,3,4,5,6-pentahydroxyhexyl]carbamoyl]butanoic acid], for which the EC50 is 126 to 1000 nM.

On to `O=C(NCCCCc1ccc(Cl)c(CNC2(c3cnccc3-c3ccccc3OC3CC3)CC2)c1)NC[C@H](O)[C@@H](O)[C@H](O)[C@H](O)CO` [Compound I-64, 1-(4-[4-chloro-3-[([1-[4-(2-cyclopropoxyphenyl)pyridin-3-yl]cyclopropyl]amino)methyl]phenyl]butyl)-3-[(2S,3R,4R,5R)-2,3,4,5,6-pentahydroxyhexyl]urea], for which the EC50 was below 100 nM.

`Cc1cc(COC2(c3cnccc3-c3ccccc3OC3CC3)CC2)c(Cl)cc1CCCCNC(=O)NC[C@H](O)[C@@H](O)[C@H](O)[C@H](O)CO` [Compound I-65, 1-[4-[5-chloro-4-([1-[4-(2-cyclopropoxyphenyl)pyridin-3-yl]cyclopropoxy]methyl)-2-methylphenyl]butyl]-3-[(2S,3R,4R,5R)-2,3,4,5,6-pentahydroxyhexyl]urea]: the EC50 is below 100 nM.

For the compound `OC[C@@H](O)[C@@H](O)[C@H](O)[C@@H](O)CNCCCCc1cc(Cl)c(COC2(c3cnccc3-c3ccccc3OC3CC3)CC2)cc1Cl` [Compound I-66, (2R,3R,4R,5S)-6-(4-(2,5-dichloro-4-((1-(4-(2-cyclopropoxyphenyl)pyridin-3-yl)cyclopropoxy)methyl)phenyl)butylamino)hexane-1,2,3,4,5-pentaol], the EC50 was 126 to 1000 nM.

`O=C(C1CCOCC1)N(CCCCc1cc(Cl)c(COC2(c3cnccc3-c3ccccc3OC3CC3)CC2)cc1Cl)C[C@H](O)[C@@H](O)[C@H](O)[C@H](O)CO` [Compound I-67, N-(4-(2,5-dichloro-4-((1-(4-(2-cyclopropoxyphenyl)pyridin-3-yl)cyclopropoxy)methyl)phenyl)butyl)-N-((2S,3R,4R,5R)-2,3,4,5,6-pentahydroxyhexyl)tetrahydro-2H-pyran-4-carboxamide]: the EC50 is below 100 nM.

As to `CC(=O)N(CCCCc1cc(Cl)c(COC2(c3cnccc3-c3ccccc3OC3CC3)CC2)cc1Cl)C[C@H](O)[C@@H](O)[C@H](O)[C@H](O)CO` [Compound I-68, N-{4-[2,5-dichloro-4-({1-[4-(2-cyclopropoxyphenyl)pyridin-3-yl]cyclopropoxy}methyl)phenyl]butyl}-N-[(2S,3R,4R,5R)-2,3,4,5,6-pentahydroxyhexyl]acetamide], the EC50 is below 100 nM.
